# Experimental data as given in patent publication US8415469B2, “Compounds and methods for kinase modulation, and indications therefor” (Plexxikon Inc., priority 2005, dated 2013).
# pIC50: −log10 of the molar value.
# Key:
# Assay type in all cases: biochemical
# [1] = molecular target: T1, B-Raf (Homo sapiens, UniProt P15056); assay: AlphaScreen kinase assay, B-Raf; settings: read-out: IC50, activity toward kinase B-Raf
# T1 construct: purchased Upstate Biotechnology
# [2] = molecular target: T2, Fms (Homo sapiens, UniProt P07333); assay: AlphaScreen kinase assay, Fms; settings: read-out: IC50, activity toward kinase Fms
# T2 construct: purchased Upstate Biotechnology
# T2 sequence (P07333 20-972): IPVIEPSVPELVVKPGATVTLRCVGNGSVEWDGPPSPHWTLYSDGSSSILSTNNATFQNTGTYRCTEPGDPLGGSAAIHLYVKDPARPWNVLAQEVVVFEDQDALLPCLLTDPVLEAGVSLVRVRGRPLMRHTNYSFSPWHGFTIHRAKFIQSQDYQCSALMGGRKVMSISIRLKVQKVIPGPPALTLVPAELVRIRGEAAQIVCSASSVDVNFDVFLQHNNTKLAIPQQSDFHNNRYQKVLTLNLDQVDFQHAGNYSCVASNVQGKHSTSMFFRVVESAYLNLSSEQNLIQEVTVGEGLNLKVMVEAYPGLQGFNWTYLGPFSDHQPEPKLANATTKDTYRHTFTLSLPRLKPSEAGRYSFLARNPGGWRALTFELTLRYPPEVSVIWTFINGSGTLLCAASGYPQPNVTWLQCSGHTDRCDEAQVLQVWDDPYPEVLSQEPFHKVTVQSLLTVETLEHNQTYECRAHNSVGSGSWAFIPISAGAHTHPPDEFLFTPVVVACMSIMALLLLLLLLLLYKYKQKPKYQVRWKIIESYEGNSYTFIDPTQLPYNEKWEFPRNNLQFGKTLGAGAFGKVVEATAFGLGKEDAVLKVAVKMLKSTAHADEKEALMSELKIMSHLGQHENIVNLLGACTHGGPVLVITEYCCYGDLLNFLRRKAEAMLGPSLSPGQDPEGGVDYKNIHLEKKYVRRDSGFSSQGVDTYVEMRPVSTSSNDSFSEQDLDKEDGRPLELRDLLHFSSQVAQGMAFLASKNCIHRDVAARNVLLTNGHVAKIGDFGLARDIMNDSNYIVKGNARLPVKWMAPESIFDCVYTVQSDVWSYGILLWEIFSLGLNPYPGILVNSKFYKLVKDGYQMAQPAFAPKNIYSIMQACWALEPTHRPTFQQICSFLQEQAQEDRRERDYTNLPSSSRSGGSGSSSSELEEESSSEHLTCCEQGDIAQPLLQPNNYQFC
# [3] = molecular target: T3, B-Raf V600E (Homo sapiens, UniProt P15056, V600E); assay: AlphaScreen kinase assay, B-Raf V600E; settings: read-out: IC50, activity toward kinase B-Raf V600E
# T3 construct: P4254. pFastBacBD-CDC37 BRAF D437-K722-X, V600E; His6 with pFastBac HT leader (TEV site) (N); made in house; host or cells: Sf9 (baculovirus; chaperone CDC37 co-expressed)
# T3 sequence (P15056 with tags, fused parts or gaps V600E): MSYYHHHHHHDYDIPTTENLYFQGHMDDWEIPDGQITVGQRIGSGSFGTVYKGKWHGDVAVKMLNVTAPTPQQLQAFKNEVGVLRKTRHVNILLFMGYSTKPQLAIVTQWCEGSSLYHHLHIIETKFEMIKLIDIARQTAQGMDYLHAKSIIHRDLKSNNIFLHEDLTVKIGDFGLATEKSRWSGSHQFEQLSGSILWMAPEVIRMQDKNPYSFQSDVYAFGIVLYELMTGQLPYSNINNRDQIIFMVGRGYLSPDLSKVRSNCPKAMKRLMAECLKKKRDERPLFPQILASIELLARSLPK
# [4] = molecular target: T4, Jnk3 (Homo sapiens, UniProt P53779); assay: AlphaScreen kinase assay, Jnk3; settings: read-out: IC50, activity toward kinase Jnk3
# T4 construct: purchased Upstate Biotechnology
# T4 sequence (P53779 whole entry): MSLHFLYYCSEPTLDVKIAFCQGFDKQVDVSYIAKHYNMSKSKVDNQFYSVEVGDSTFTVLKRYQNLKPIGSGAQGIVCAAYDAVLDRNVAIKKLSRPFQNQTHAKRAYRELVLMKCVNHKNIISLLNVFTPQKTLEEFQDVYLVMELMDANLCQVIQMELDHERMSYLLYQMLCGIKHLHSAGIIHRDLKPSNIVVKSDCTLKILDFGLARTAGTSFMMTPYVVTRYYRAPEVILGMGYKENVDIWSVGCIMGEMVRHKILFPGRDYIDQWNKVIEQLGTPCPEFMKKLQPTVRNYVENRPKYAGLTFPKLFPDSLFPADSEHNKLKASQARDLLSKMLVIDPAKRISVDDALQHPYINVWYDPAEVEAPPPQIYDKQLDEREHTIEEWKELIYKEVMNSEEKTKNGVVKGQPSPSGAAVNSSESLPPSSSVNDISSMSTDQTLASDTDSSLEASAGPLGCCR
# [5] = molecular target: T5, Jnk2 (Homo sapiens, UniProt P45984); assay: AlphaScreen kinase assay, Jnk2; settings: read-out: IC50, activity toward kinase Jnk2
# T5 construct: purchased Roche Protein Expression Group (Indianapolis, IN)
# T5 sequence (P45984 whole entry): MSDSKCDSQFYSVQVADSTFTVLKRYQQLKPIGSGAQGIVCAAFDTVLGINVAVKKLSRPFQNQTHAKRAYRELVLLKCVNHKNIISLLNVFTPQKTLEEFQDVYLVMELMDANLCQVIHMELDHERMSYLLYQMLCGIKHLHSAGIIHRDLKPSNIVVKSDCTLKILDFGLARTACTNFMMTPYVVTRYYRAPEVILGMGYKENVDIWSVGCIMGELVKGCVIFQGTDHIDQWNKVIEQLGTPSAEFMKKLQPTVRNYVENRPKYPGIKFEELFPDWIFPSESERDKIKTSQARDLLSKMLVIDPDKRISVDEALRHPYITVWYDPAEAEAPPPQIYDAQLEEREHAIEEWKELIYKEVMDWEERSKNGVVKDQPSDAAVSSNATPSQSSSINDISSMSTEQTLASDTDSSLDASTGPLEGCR
# From the text: AlphaScreen assay was used to screen additional kinases. The assay is similarly dependent on the phosphorylation of a peptide substrate. In this assay, an antibody that recognizes phosphorylated substrate is bound to an acceptor bead. The peptide substrate is attached to biotin, which binds to a donor head that contains streptavidin. Thus phosphorylated substrate is bound by antibody and streptavidin, bringing the donor and acceptor heads into close proximity when kinase is not inhibited. The donor produces singlet oxygen which results in emission from the acceptor when they are in close proximity. Conversely, when kinase is inhibited, the donor and acceptor beads are not associated and the emission from the acceptor is reduced.
# AlphaScreen assays were done using compounds dissolved in DMSO to a concentration of 20 mM. The compounds were diluted accordingly to the desired final concentrations in each sample well, using 1:3 serial dilution for a total of 8 concentration points.
# [6] = molecular target: T6, Jnk1 (Homo sapiens, UniProt P45983); assay: AlphaScreen kinase assay, Jnk1; settings: read-out: IC50, activity toward kinase Jnk1
# T6 construct: purchased Upstate Biotechnology
# T6 sequence (P45983 whole entry): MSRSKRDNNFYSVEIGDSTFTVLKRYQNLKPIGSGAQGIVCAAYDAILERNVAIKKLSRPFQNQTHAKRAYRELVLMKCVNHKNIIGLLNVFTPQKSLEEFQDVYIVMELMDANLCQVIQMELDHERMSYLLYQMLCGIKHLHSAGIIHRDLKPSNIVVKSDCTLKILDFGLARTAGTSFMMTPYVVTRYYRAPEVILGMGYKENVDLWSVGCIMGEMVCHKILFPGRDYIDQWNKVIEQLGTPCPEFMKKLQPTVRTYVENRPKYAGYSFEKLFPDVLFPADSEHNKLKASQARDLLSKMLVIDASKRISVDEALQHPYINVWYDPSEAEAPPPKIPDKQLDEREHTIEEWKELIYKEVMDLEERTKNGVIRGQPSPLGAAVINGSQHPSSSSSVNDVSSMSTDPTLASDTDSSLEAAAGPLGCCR
# [7] = molecular target: T7, c-Raf-1 (Homo sapiens, UniProt P04049); assay: AlphaScreen kinase assay, c-Raf-1; settings: read-out: IC50, activity toward kinase c-Raf-1
# T7 construct: purchased Upstate Biotechnology
# T7 sequence (P04049 whole entry): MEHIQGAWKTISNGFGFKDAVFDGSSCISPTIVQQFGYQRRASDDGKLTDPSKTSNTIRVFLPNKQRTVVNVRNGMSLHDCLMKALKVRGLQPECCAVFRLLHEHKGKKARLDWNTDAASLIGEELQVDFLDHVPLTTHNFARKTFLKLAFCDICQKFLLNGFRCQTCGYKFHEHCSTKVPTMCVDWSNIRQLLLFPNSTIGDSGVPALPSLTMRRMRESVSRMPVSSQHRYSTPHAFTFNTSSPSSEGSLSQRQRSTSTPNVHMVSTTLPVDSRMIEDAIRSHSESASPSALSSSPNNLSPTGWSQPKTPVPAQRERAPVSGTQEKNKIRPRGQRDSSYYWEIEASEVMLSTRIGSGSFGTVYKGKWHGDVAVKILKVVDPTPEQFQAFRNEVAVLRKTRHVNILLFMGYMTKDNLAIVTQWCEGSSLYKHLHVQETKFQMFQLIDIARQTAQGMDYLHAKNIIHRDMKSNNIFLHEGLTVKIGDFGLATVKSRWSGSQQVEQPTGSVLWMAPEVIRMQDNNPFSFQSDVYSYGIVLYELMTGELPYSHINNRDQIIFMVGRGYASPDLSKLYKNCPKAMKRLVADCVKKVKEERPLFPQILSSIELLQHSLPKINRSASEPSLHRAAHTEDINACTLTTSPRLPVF
# [8] = molecular target: T8, Kit (Homo sapiens, UniProt P10721); assay: AlphaScreen kinase assay, Kit; settings: read-out: IC50, activity toward kinase Kit
# T8 construct: P1332.N6 BI PTP KIT M552-K948-X COD; His6 (N); made in house; host or cells: E. coli (PTP1B co-expressed)
# T8 sequence (P10721 with tags, fused parts or gaps): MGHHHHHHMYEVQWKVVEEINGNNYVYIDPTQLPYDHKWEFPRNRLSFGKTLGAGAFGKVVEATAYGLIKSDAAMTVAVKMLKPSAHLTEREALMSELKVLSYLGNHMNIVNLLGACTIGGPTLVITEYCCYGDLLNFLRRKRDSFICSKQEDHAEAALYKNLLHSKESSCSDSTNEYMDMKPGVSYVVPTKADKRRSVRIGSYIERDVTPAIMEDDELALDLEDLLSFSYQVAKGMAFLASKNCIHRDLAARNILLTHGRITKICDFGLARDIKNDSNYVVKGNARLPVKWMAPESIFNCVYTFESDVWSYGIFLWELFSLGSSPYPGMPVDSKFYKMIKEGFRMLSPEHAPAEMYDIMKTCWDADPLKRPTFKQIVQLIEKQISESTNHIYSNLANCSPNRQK
# [9] = molecular target: T9, Flt1 (Homo sapiens, UniProt P17948); assay: AlphaScreen kinase assay, Flt1; settings: read-out: IC50, activity toward kinase Flt1
# T9 construct: P1826.pETN6 BI-PTP FLT1 M799-D1165-X WT; His6 (N); made in house; host or cells: E. coli (PTP1B co-expressed)
# T9 sequence (P17948 with tags, fused parts or gaps): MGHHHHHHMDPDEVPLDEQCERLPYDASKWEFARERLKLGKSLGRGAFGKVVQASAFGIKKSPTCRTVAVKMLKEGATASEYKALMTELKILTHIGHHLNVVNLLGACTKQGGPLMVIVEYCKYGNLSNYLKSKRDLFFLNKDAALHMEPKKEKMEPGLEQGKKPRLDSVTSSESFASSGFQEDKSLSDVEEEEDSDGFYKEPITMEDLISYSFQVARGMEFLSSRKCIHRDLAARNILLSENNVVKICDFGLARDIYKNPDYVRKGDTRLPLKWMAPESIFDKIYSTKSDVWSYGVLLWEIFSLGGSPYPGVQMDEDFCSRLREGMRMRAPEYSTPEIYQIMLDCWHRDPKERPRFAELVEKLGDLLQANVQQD
# [10] = molecular target: T10, Btk (Homo sapiens, UniProt Q06187); assay: Z'-Lyte FRET kinase assay (Invitrogen), Btk; settings: read-out: IC50, activity toward kinase Btk
# T10 construct: purchased Invitrogen (assay run by Invitrogen)
# [11] = molecular target: T11, Src (Homo sapiens, UniProt P12931); assay: AlphaScreen kinase assay, Src; settings: read-out: IC50, activity toward kinase Src
# T11 construct: P1144. pET-N6 BI-PTP SRC V86-L536-X; made in house
# [12] = molecular target: T12, Fak (Homo sapiens, UniProt Q05397); assay: AlphaScreen kinase assay, Fak; settings: read-out: IC50, activity toward kinase Fak
# T12 construct: P1358.pFastBacHtb FAK S411-Q686-X; His6 with pFastBacHTb leader (TEV site) (N); made in house; host or cells: Sf9 (baculovirus)
# T12 sequence (Q05397 411-686): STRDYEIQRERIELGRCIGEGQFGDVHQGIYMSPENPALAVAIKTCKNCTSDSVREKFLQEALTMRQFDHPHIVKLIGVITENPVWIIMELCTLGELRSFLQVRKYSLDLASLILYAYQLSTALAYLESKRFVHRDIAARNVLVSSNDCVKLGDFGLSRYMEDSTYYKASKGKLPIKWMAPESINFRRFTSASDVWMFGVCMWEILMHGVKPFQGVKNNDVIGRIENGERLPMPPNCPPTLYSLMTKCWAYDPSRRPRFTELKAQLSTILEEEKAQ
# [13] = molecular target: T13, FGFR1 (Homo sapiens, UniProt P11362, C488A/C584S); assay: AlphaScreen kinase assay, FGFR1; settings: read-out: IC50, activity toward kinase FGFR
# T13 construct: P1351.pET N6 BI-PTP FGFR A458-E765-X C488A, C584S; made in house; host or cells: E. coli (PTP1B co-expressed)
# T13 sequence (P11362 458-765 C488A/C584S): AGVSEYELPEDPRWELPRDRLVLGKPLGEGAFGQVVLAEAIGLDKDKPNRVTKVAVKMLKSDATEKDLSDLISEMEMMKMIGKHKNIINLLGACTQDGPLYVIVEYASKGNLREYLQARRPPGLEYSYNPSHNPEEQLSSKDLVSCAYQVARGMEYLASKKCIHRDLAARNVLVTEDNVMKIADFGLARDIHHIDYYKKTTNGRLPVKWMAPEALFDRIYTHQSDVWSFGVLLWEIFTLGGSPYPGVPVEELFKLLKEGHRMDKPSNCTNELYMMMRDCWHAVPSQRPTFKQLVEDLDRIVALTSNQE
# [14] = molecular target: T14, Ret (Homo sapiens, UniProt P07949); assay: AlphaScreen kinase assay, Ret; settings: read-out: IC50, activity toward kinase Ret
# T14 construct: P1378.pET-SF BI-PTP RET H661-R1012 HIS; made in house
# T14 sequence (P07949 with tags, fused parts or gaps): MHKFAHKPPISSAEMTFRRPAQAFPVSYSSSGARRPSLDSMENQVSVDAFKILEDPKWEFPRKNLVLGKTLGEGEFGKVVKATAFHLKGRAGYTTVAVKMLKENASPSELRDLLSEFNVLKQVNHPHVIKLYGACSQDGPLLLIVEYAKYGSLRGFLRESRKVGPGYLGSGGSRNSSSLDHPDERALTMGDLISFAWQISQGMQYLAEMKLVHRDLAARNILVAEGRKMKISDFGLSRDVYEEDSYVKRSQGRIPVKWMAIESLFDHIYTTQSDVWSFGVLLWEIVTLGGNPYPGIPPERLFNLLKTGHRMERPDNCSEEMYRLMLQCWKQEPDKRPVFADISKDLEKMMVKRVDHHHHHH
# T1 sequence (P15056 whole entry): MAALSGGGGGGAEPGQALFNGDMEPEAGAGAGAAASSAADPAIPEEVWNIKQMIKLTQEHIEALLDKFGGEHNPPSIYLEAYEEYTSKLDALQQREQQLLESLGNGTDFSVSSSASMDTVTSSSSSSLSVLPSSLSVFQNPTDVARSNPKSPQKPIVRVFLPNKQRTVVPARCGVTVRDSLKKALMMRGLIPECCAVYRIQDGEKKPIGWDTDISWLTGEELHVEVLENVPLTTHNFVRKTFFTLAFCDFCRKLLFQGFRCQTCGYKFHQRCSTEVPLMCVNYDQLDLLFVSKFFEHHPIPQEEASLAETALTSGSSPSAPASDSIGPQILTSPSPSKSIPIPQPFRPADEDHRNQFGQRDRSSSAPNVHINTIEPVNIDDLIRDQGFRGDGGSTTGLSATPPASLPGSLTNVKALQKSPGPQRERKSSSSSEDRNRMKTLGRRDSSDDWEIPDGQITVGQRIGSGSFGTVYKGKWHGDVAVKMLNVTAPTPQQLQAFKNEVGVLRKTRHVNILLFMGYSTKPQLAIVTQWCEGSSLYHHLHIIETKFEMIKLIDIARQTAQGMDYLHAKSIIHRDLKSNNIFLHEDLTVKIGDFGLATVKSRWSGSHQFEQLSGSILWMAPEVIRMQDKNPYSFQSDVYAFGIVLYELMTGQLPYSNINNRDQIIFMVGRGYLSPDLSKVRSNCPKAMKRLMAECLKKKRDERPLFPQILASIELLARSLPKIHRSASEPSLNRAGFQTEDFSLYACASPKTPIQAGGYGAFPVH
SMILES,pIC50 [1],pIC50 [2],pIC50 [3],pIC50 [4],pIC50 [5],pIC50 [6],pIC50 [7],pIC50 [8],pIC50 [9],pIC50 [10],pIC50 [11],pIC50 [12],pIC50 [13],pIC50 [14]
"O=C(Nc1cccc(C(=O)c2c[nH]c3ncc(-c4ccc(F)cc4)cc23)c1)Nc1ccc(C(F)(F)F)cc1Cl [Compound P-1753, 1-(2-Chloro-4-trifluoromethyl-phenyl)-3-{3-[5-(4-fluoro-phenyl)-1H-pyrrolo[2,3-b]pyridine-3-carbonyl]-phenyl}-urea]",≥ 5.00,≥ 5.00,≥ 5.00,≥ 5.00,≥ 5.00,–,–,–,–,–,–,–,–,–
"CCCCOc1ccc(NC(=O)Nc2cccc(C(=O)c3c[nH]c4ncc(-c5cccnc5)cc34)c2)cc1 [Compound P-1729, 1-(4-Butoxy-phenyl)-3-[3-(5-pyridin-3-yl-1H-pyrrolo[2,3-b]pyridine-3-carbonyl)-phenyl]-urea]",≥ 5.00,≥ 5.00,≥ 5.00,–,≥ 5.00,–,–,–,–,–,–,–,–,–
"O=C(Nc1ccc(C(F)(F)F)cc1)Nc1cccc(C(=O)c2c[nH]c3ncc(-c4cccnc4)cc23)c1 [Compound P-1731, 1-[3-(5-Pyridin-3-yl-1H-pyrrolo[2,3-b]pyridine-3-carbonyl)-phenyl]-3-(4-trifluoromethyl-phenyl)-urea]",≥ 5.00,≥ 5.00,≥ 5.00,–,≥ 5.00,≥ 5.00,–,–,–,–,–,–,–,–
"O=C(Nc1cccc(C(=O)c2c[nH]c3ncccc23)c1)Nc1ccc(Cl)c(C(F)(F)F)c1 [Compound P-1711, 1-(4-Chloro-3-trifluoromethyl-phenyl)-3-[3-(1H-pyrrolo[2,3-b]pyridine-3-carbonyl)-phenyl]-urea]",≥ 5.00,≥ 5.00,≥ 5.00,–,≥ 5.00,–,–,≥ 5.00,–,–,–,–,–,–
"O=C(Nc1cccc(C(=O)c2c[nH]c3ncc(-c4cccnc4)cc23)c1)Nc1cccc(C(F)(F)F)c1F [Compound P-1728, 1-(2-Fluoro-3-trifluoromethyl-phenyl)-3-[3-(5-pyridin-3-yl-1H-pyrrolo[2,3-b]pyridine-3-carbonyl)-phenyl]-urea]",≥ 5.00,≥ 5.00,≥ 5.00,–,≥ 5.00,–,–,–,–,–,–,–,–,–
COc1ccc(C(=O)c2c[nH]c3ncc(-c4cccc(C(N)=O)c4)cc23)c(F)c1 [Compound P-1346],≥ 5.00,≥ 5.00,≥ 5.00,≥ 5.00,–,≥ 5.00,–,≥ 5.00,–,≥ 5.00,≥ 5.00,≥ 5.00,≥ 5.00,–
O=C(Nc1ccc(C(=O)c2c[nH]c3ncccc23)cc1)Nc1cccc(C(F)(F)F)c1 [Compound P-1671],≥ 5.00,≥ 5.00,≥ 5.00,–,≥ 5.00,–,≥ 5.00,≥ 5.00,–,–,–,–,–,–
"O=C(c1cccc(O)c1F)c1c[nH]c2ncc(-c3cncnc3)cc12 [Compound P-0744, (2-fluoro-3-hydroxy-phenyl)-(5-pyrimidin-5-yl-1H-pyrrolo[2,3-b]pyridin-3-yl)-methanone]",≥ 5.00,–,≥ 5.00,–,≥ 5.00,–,≥ 5.00,–,–,–,–,–,≥ 5.00,≥ 5.00
"O=C(Nc1cccc(C(=O)c2c[nH]c3ncc(-c4cccnc4)cc23)c1)Nc1cc(C(F)(F)F)ccc1Cl [Compound P-1732, 1-(2-Chloro-5-trifluoromethyl-phenyl)-3-[3-(5-pyridin-3-yl-1H-pyrrolo[2,3-b]pyridine-3-carbonyl)-phenyl]-urea]",≥ 5.00,≥ 5.00,≥ 5.00,–,≥ 5.00,–,–,–,–,–,–,–,–,–
"CCc1ccc(S(=O)(=O)Nc2ccc(F)c(C(=O)c3c[nH]c4ncc(Cl)cc34)c2F)cc1 [Compound P-1700, N-[3-(5-Chloro-1H-pyrrolo[2,3-b]pyridine-3-carbonyl)-2,4-difluoro-phenyl]-4-ethyl-benzenesulfonamide]",≥ 5.00,≥ 5.00,≥ 5.00,–,≥ 5.00,–,–,≥ 5.00,–,–,–,–,–,–

# The remaining lines, values ahead:
pIC50 [1],pIC50 [2],pIC50 [3],pIC50 [4],pIC50 [5],pIC50 [6],pIC50 [7],pIC50 [8],pIC50 [9],pIC50 [10],pIC50 [11],pIC50 [12],pIC50 [13],pIC50 [14],SMILES
≥ 5.00,≥ 5.00,≥ 5.00,–,≥ 5.00,≥ 5.00,–,–,–,–,–,–,–,–,"COc1cc(NC(=O)Nc2cccc(C(=O)c3c[nH]c4ncc(-c5cccnc5)cc34)c2)cc(C(F)(F)F)c1 [Compound P-1778, 1-(3-Methoxy-5-trifluoromethyl-phenyl)-3-[3-(5-pyridin-3-yl-1H-pyrrolo[2,3-b]pyridine-3-carbonyl)-phenyl]-urea]"
≥ 5.00,≥ 5.00,≥ 5.00,–,≥ 5.00,≥ 5.00,–,–,–,–,–,–,–,–,"O=C(Nc1cccc(C(=O)c2c[nH]c3ncc(-c4cccnc4)cc23)c1)Nc1ccc(C(F)(F)F)cc1Cl [Compound P-1727, 1-(2-Chloro-4-trifluoromethyl-phenyl)-3-[3-(5-pyridin-3-yl-1H-pyrrolo[2,3-b]pyridine-3-carbonyl)-phenyl]-urea]"
≥ 5.00,≥ 5.00,≥ 5.00,–,≥ 5.00,–,≥ 5.00,≥ 5.00,–,–,–,–,–,–,"O=C(Nc1cccc(C(=O)c2c[nH]c3ncc(Cl)cc23)c1)Nc1ccc(Cl)c(C(F)(F)F)c1 [Compound P-1737, 1-[3-(5-Chloro-1H-pyrrolo[2,3-b]pyridine-3-carbonyl)-phenyl]-3-(4-chloro-3-trifluoromethyl-phenyl)-urea]"
–,≥ 5.00,≥ 5.00,–,≥ 5.00,–,–,≥ 5.00,≥ 5.00,–,–,–,–,–,"O=C(Nc1ccc(F)c(Cc2c[nH]c3ncc(Cl)cc23)c1F)NC1CCCC1 [Compound P-1575, 1-[3-(5-Chloro-1H-pyrrolo[2,3-b]pyridin-3-ylmethyl)-2,4-difluoro-phenyl]-3-cyclopentyl-urea]"
≥ 5.00,≥ 5.00,≥ 5.00,≥ 5.00,–,≥ 5.00,–,≥ 5.00,≥ 5.00,≥ 5.00,≥ 5.00,≥ 5.00,≥ 5.00,–,"CCNC(=O)COc1ccc(F)c(Cc2c[nH]c3ncc(-c4cccnc4)cc23)c1F [Compound P-1475, 2-[2,4-Difluoro-3-(5-pyridin-3-yl-1H-pyrrolo[2,3-b]pyridin-3-ylmethyl)-phenoxy]-N-ethyl-acetamide]"
